Reference: patent US20080014256A1 (priority 2005, published 2008)
“And” between values parts separate entries of the source, which are not always exact repeats. Equal values may be shown once. Read-outs that look alike come from different tables or passages of the source. Marks after values point to notes of the source that are not given here.

Tests used:
[1] = system: cell monolayer; conditions: pH 6
[2] = cynomolgus monkey, in vivo, 15 mg/kg
[3] = Pharmacokinetics of tigecycline after single oral (gavage) and intravenous dose in 0.9% saline

Tigecycline
cell monolayer permeability [1]: 0.04 ×10⁻⁶ cm/s
AUC0-t or 0-∞ [2]: 18267
AUC0-t or 0-∞ ([2]; po): 163
AUC0-4 ([3]; 5 mg/kg iv, animals 1-4 and Mean): 20178 ng·h/mL
Cmax ([3]; 15 mg/kg oral (gavage), 0.9% saline, animals 1-4 and Mean): 131 ng/mL and 191 ng/mL and 178 ng/mL
AUC0-t ([3]; 15 mg/kg oral (gavage), t = 2 hr (animals 1, 2, 4) or t = 1 hr (animal 3), individual and Mean): 105^c ng · hr/mL
